Laboratory results from publication PMC6789782, “Safety Pharmacological Evaluation of the Coffee Component, Caffeoylquinic Acid, and Its Metabolites, Using Ex Vivo and In Vitro Profiling Assays” (Pharmaceuticals, 2019).
Where two headings read alike, the source gives them in different places.

Assays:
Assay in all cases: In vitro profiling, binding assay
[1] = target: T1, 5-HT1A (Homo sapiens, UniProt P08908)
T1 sequence (P08908 1-422): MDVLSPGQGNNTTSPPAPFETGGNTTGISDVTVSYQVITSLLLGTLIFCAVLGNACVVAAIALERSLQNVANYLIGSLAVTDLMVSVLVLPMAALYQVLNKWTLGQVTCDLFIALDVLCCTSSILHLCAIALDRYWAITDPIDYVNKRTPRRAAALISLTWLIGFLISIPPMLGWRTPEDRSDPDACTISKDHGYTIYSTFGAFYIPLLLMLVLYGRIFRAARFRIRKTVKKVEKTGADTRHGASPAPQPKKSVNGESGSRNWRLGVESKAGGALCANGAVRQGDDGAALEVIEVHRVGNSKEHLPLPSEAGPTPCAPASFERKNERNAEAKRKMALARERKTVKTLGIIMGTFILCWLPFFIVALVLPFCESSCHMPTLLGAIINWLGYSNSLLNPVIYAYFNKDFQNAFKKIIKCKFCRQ
Protocol: (§1) Binding and functional assays of CGAs with the proteins known to be pharmacological targets related to the CVS, CNS, and GI functions were conducted. […] In the binding assay, we measured the radiation activity of the solution containing filtered proteins that bound to the tested compound or high-affinity ligand, while in the functional assays, we measured the reaction product. The ability of the test compound to interact with the tested targets was measured as the inhibition of ligand binding to the target or reaction product production (% inhibition).

[2] = target: 5-HT2A (Homo sapiens, UniProt P28223)
Protocol: as §1

[3] = target: T2, Adrenergic α1A (Rattus norvegicus, UniProt P43140)
T2 sequence (P43140 1-466): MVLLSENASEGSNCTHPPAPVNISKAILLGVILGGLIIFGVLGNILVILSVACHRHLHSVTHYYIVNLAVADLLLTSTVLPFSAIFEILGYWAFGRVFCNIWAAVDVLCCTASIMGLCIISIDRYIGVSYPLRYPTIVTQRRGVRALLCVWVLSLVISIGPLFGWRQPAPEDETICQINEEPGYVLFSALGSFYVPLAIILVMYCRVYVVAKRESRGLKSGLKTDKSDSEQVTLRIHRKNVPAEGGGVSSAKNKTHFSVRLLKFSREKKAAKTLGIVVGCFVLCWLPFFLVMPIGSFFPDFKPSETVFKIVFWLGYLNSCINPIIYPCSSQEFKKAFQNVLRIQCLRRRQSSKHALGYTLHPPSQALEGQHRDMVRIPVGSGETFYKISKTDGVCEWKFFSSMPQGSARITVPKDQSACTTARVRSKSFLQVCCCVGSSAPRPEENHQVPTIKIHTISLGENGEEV
Protocol: as §1

[4] = target: T3, Adrenergic α2A (Homo sapiens, UniProt P08913)
T3 sequence (P08913 1-465): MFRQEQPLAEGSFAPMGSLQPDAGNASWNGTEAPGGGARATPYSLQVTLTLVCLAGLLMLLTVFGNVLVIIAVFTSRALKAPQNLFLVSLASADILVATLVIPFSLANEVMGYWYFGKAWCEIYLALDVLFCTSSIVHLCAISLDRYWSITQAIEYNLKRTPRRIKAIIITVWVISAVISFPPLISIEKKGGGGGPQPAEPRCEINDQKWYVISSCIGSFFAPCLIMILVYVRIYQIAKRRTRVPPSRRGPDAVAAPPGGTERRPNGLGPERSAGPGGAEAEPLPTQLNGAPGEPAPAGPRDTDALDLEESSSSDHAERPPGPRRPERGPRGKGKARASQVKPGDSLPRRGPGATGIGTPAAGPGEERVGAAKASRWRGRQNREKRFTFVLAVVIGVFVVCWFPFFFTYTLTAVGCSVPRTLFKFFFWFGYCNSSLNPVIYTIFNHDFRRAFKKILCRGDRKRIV
Protocol: as §1

[5] = target: Adrenergic β1 (Homo sapiens, UniProt P08588)
Protocol: as §1

[6] = target: Dopamine D1 (Homo sapiens, UniProt P21728)
Protocol: as §1

[7] = target: T4, Endothelin ETA (Homo sapiens, UniProt P25101)
T4 sequence (P25101 21-427): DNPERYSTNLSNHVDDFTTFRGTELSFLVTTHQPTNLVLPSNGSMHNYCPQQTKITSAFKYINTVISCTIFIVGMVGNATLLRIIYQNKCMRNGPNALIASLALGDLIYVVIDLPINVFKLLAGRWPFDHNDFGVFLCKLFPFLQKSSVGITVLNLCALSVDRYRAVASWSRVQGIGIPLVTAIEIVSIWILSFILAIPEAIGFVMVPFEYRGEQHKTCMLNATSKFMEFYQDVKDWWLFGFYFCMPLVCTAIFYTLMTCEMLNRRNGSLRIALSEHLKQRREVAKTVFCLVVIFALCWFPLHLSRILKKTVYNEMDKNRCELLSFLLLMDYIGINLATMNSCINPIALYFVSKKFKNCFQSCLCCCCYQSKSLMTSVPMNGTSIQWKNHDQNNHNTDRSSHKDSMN
Protocol: as §1

[8] = target: Histamine H1 (Homo sapiens, UniProt P35367)
Protocol: as §1

[9] = target: T5, Muscarinic M1 (Homo sapiens, UniProt P11229)
T5 sequence (P11229 1-460): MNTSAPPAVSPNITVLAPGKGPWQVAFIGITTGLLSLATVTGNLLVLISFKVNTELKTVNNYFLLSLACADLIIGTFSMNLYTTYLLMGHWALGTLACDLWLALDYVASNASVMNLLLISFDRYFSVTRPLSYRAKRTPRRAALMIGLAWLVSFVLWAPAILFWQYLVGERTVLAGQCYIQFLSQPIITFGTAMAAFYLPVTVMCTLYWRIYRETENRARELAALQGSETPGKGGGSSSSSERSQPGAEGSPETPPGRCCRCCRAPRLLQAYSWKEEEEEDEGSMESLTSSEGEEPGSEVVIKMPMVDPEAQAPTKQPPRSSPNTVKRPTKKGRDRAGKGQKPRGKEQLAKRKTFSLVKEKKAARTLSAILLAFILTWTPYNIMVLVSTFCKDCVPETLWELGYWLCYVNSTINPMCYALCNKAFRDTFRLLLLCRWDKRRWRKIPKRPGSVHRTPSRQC
Protocol: as §1

[10] = target: Opiate δ1 (Homo sapiens, UniProt P41143)
Protocol: as §1

[11] = target: Opiate κ (Homo sapiens, UniProt P41145)
Protocol: as §1

[12] = 30 µM, 5-HT1A, read-out: % Inhibition
[13] = 30 µM, Adrenergic α1A, read-out: % Inhibition
[14] = 30 µM, Adrenergic α2A, read-out: % Inhibition
[15] = 30 µM, Adrenergic β1, read-out: % Inhibition
[16] = 30 µM, Dopamine D1, read-out: % Inhibition
[17] = 30 µM, Endothelin ETA, read-out: % Inhibition
[18] = 30 µM, Opiate δ1, read-out: % Inhibition
[19] = 30 µM, Opiate κ, read-out: % Inhibition

Sequence of Opiate κ (P41145 whole entry): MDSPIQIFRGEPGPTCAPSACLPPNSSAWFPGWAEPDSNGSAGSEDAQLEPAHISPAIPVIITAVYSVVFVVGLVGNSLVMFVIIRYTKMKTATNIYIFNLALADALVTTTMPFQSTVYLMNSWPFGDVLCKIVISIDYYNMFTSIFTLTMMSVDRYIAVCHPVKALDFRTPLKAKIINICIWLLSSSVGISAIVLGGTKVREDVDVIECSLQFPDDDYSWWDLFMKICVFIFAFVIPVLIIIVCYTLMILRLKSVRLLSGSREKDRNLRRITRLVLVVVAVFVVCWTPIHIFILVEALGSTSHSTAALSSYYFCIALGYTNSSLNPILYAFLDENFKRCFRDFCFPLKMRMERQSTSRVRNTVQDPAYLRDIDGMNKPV
Sequence of Dopamine D1 (P21728 whole entry): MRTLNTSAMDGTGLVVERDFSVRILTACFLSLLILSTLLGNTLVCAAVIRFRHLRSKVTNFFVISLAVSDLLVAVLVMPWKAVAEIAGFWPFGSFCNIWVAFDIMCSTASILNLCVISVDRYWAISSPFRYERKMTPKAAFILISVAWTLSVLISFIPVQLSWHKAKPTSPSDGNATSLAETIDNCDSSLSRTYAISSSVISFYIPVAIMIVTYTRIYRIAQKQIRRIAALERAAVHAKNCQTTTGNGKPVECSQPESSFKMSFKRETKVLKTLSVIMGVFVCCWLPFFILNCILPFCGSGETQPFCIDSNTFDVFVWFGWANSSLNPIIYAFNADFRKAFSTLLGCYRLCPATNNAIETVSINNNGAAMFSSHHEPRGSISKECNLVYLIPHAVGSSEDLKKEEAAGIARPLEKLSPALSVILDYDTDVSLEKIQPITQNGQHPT
Sequence of 5-HT2A (P28223 whole entry): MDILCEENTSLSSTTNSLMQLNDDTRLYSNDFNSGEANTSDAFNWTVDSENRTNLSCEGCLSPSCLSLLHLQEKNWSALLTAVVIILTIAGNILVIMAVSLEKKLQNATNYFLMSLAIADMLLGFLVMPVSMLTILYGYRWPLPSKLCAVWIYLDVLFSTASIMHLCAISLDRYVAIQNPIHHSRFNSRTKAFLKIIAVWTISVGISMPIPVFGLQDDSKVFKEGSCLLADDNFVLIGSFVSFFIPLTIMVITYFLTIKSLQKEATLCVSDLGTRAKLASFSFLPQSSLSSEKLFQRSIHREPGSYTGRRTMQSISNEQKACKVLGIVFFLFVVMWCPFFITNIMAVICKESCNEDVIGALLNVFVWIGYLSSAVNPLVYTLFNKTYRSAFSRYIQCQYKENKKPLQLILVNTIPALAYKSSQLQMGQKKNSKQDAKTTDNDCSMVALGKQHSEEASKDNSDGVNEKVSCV
Sequence of Opiate δ1 (P41143 whole entry): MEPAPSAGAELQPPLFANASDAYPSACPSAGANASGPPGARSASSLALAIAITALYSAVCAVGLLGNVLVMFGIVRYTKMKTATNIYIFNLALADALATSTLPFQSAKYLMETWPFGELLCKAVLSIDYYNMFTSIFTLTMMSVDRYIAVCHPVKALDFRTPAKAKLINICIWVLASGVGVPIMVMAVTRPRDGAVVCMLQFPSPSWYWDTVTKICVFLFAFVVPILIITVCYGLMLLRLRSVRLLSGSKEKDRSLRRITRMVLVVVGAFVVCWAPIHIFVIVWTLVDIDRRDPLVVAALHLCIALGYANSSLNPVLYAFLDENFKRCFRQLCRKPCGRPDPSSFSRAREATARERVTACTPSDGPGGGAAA
Sequence of Histamine H1 (P35367 whole entry): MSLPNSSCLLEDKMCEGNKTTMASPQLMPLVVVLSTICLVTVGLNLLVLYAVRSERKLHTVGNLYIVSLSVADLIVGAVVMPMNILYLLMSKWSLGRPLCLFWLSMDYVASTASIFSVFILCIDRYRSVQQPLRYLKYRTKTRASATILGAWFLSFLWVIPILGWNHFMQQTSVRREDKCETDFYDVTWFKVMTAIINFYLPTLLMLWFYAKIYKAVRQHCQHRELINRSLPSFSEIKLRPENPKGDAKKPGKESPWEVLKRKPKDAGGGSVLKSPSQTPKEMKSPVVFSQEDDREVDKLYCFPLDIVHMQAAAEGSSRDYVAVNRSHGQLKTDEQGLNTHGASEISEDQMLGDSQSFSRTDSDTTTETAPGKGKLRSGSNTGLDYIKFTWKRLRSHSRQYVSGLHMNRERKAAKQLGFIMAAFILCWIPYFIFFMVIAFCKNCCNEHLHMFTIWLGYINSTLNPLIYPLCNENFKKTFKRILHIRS
Sequence of Adrenergic β1 (P08588 whole entry): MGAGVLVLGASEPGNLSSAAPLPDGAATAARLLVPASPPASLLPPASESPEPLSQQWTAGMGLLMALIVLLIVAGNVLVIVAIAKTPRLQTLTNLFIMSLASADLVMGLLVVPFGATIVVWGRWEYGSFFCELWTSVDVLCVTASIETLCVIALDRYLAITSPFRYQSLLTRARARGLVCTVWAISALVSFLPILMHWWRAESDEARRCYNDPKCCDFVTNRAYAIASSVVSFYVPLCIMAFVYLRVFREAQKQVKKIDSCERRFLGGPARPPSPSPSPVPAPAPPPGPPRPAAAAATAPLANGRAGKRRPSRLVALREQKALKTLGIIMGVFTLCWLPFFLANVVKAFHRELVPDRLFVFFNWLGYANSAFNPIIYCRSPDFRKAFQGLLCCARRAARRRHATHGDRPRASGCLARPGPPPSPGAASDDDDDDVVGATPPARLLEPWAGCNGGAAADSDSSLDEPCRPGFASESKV

Structure (SMILES)	inhibition at 30 µM [1, 12]	inhibition at 30 µM [2]	inhibition at 30 µM [3, 13]	inhibition at 30 µM [4, 14]	inhibition at 30 µM [5, 15]	inhibition at 30 µM [6, 16]	inhibition at 30 µM [7, 17]	inhibition at 30 µM [8]	inhibition at 30 µM [9]	inhibition at 30 µM [10, 18]	inhibition at 30 µM [11, 19]	further results
O=C(/C=C/c1ccc(O)c(O)c1)O[C@H]1C[C@@](O)(C(=O)O)C[C@H](O)[C@@H]1O [5-CQA, 5-O-caffeoylquinic acid]	12%	3%	14%	5%	-1%	7%	3%	-12%	0%	5%	-3%	
COc1cc(/C=C/C(=O)O[C@H]2C[C@@](O)(C(=O)O)C[C@H](O)[C@@H]2O)ccc1O [5-FQA, 5-O-feruloylquinic acid]	11%	8%	10%	-3%	-4%	22%	1%	-22%		2%	-7%	inhibition at 30 µM ([9]; 30 µM, Muscarinic M1, read-out: % Inhibition): -5%
O=C(O)/C=C/c1ccc(O)c(O)c1 [CA, caffeic acid]		7%							5%			% Inhibition ([1]; 30 µM, 5-HT1A): 9%; % Inhibition ([3]; 30 µM, Adrenergic α1A): 10%; % Inhibition ([4]; 30 µM, Adrenergic α2A): −4%; % Inhibition ([5]; 30 µM, Adrenergic β1): 3%; % Inhibition ([6]; 30 µM, Dopamine D1): 5%; % Inhibition ([7]; 30 µM, Endothelin ETA): 4%; % Inhibition ([8]; 30 µM): −11%; % Inhibition ([10]; 30 µM, Opiate δ1): 11%; % Inhibition ([11]; 30 µM, Opiate κ): 3%
COc1cc(/C=C/C(=O)O)ccc1O [FA, ferulic acid]												inhibition at 30 µM [1]: 2%; inhibition at 30 µM [3]: -2%; inhibition at 30 µM [4]: -2%; inhibition at 30 µM [5]: -2%; inhibition at 30 µM [6]: -1%; inhibition at 30 µM [7]: 1%; inhibition at 30 µM [10]: 16%; inhibition at 30 µM [11]: 3%
